Where “and” joins values, the source holds several entries; their conditions need not be identical. Equal values may be shown once.
Key:
[1] = tested on: lithium-pilocarpine model of temporal lobe epilepsy in the rat; experiment: Quantification of cell densities in hippocampus, thalamus and cortex after Li-pilo SE (Example 1); type: in vivo; conditions: DZP
Method: Quantification of cell densities was performed at 6 days after SE on 8 pilo-DZP, 8 pilo-TC10, 7 pilo-TC30, 7 pilo-TC60, and 6 saline-saline rats.
Cell counts were performed twice in a blind manner and were the average of at least 3 values from 2 adjacent sections in each individual animal. Counts involved only cells larger than 10 μm, smaller ones being considered as glial cells.
For the comparison of the characteristics of SE in pilo-saline and pilo-test compound animals, a non-paired Student's t-test was used. The comparison between the number of rats seizing in both groups was performed by means of a Chi square test. For neuronal damage, statistical analysis between groups was performed using ANOVA followed by a Fisher's test for multiple comparisons using the Statview software (Fisher R A, 1946a, Statistical Methods for Research Workers (10th edition) Oliver & Boyd, Edinburgh; Fisher R A, 1946b, The Design of Experiments (4th edition) Oliver & Boyd, Edinburgh) Behavioral and EEG Characteristics of Lithium-pilocarpine Status Epilepticus

[2] = tested on: lithium-pilocarpine model of temporal lobe epilepsy in the rat; experiment: Latency to and frequency of spontaneous seizures, video recording (Example 2); type: in vivo, Sprague-Dawley rats; conditions: DZP 2.5 mg/kg i.m.
Method: The effects of DZP and the 4 doses of TC on epileptogenesis were investigated by daily video recording of the animals for 10 h per day. Video recording was performed for 4 weeks during which the occurrence of the first seizure was noted as well as the total number of seizures over the whole period. Animals were then taken off the video recording system and kept for 4 additional weeks in our animal facilities before they were sacrificed after a total period of 8 weeks of epilepsy.

[3] = tested on: lithium-pilocarpine status epilepticus in the rat; experiment: EEG patterns during and after Li-pilo SE (Example 1); type: in vivo; conditions: DZP 2 mg/kg i.m.; cortex and hippocampus
Method: (§1) Male Wistar rats weighing 225-250 g, provided by Janvier Breeding Center (Le Genest-St-lste, France) were housed under controlled standard conditions (light/dark cycle, 7.00 a.m.-7.00 p.m. lights on), with food and water available ad libitum. All animal experimentation was performed in accordance with the rules of the European Communities Council Directive of Nov. 24, 1986 (86/609/EEC), and the French Department of Agriculture (License N^o 67-97). For electrode implantation, rats were anesthetized by an i.p. injection of 2.5 mg/kg diazepam (DZP, Valium, Roche, France) and […] ketamine chlorhydrate (Imalgene 1000, Rhone Merrieux, France). Four single-contact recording electrodes were placed on the skull, over the parietal cortex, two on each side.
(§2) The bilateral EEG cortical activity was recorded during the whole duration of SE and behavioral changes were noted.
The effects of the test compound on the EEG and on the latency to occurrence of SRS were investigated by daily video recording of the animals for 10 h per day and the recording of the electrographic activity twice a week for 8 h.

[4] = tested on: lithium-pilocarpine status epilepticus in the rat; experiment: Mortality over the first 48 h after Li-pilo SE (Example 2); type: in vivo, Sprague-Dawley rats; conditions: DZP 2.5 mg/kg i.m.
Method: Adult male Sprague-Dawley rats provided by Janvier Breeding Center (Le Genest-St-lsle, France) were housed under controlled, uncrowded standard conditions at 20-22° C. (light/dark cycle, 7.00 a.m.-7.00 p.m. lights on), with food and water available ad libitum. All animal experimentation was performed in accordance with the rules of the European Communities Council Directive of Nov. 24, 1986 (86/609/EEC), and the French Department of Agriculture (License N^o 67-97).

[5] = tested on: lithium-pilocarpine model of temporal lobe epilepsy in the rat; experiment: Quantification of cell densities (neuronal counting) 14 days after Li-pilo SE (Example 2); conditions: for number of neuronal cell bodies: DZP 2.5 mg/kg i.m., 14 days after li-pilo SE
Method: All rats received lithium chloride (3 meq/kg, i.p., Sigma, St Louis, Mo., U.S.A.) and about 20 h later, all animals received also methylscopolamine bromide (1 mg/kg, s.c., Sigma) that was administered to limit the peripheral effects of the convulsant. […] The effects of increasing doses of TC were studied in 5 groups of rats. […] The control group received vehicle instead of pilocarpine and TC.
For neuronal counting, animals were deeply anesthetized with 1.8 g/kg pentobarbital (Dolethal®, Vétoquinol, Lure, France). Brains were then removed and frozen. Serial 20 μm slices were cut in a cryostat, air-dried during several days before thionine staining. […] The grid of counting was placed on a well defined area of the cerebral structure of interest and counting was carried out with a microscopic enlargement of 200- or 400-fold defined for each single cerebral structure. Cell counts were performed twice on each side of three adjacent sections for each region by a single observer unaware of the animal's treatment. The number of cells obtained in the 12 counted fields in each cerebral structure was averaged. This procedure was used to minimize the potential errors that could result from double counting leading to overestimation of cell numbers. […] Counts involved only neurons with cell bodies larger than 10 μm. Cells with small cell bodies were considered as glial cells and were not counted.
For neuronal damage and epileptogenesis, statistical analysis between groups was performed by means of a one-way analysis of variance followed by a post-hoc Dunnett or Fisher test using the Statistica software.

[6] = tested on: lithium-pilocarpine status epilepticus in the rat; experiment: Mortality induced by SE, lithium-pilocarpine model (Example 1); type: in vivo; conditions: DZP 2 mg/kg i.m. 1 h after onset of SE (5/22)
Text: The model induced in rats by pilocarpine associated with lithium (Li-Pilo) reproduces most of the clinical and neurophysiological features of human temporal lobe epilepsy (Turski et al., 1989, Synapse 3:154-171; Cavalheiro, 1995, Ital J Neurol Sci 16:33-37). In adult rats, the systemic administration of pilocarpine leads to status epilepticus (SE). The lethality rate reaches 30-50% during the first days. In the surviving animals, neuronal damage predominates within the hippocampal formation, the piriform and entorhinal cortices, thalamus, amygdaloid complex, neocortex and substantia nigra.
as §1, §2
The effects of increasing doses of the test compound were studied on 3 groups of rats. The animals of the first group received 10 mg/kg of the test compound, i.p., 1 h after the onset of SE (pilo-TC10) while the animals of groups 2 and 3 received 30 and 60 mg/kg of the test compound (pilo-TC30 and pilo-TC60), respectively.
The control group received saline instead of pilocarpine and the test compound (saline-saline). […] Pilo-DZP received a second injection of 1 mg/kg DZP on the day of SE at about 10 h after the first one. Thereafter, Pilo-DZP and saline-saline rats received twice daily an equivalent volume of saline.

In the case of `CN1C(=O)CN=C(c2ccccc2)c2cc(Cl)ccc21` [DZP, diazepam], the “damage compared to saline-saline rats” value ([1]; dentate gyrus granule cell layer) is reported as “did not show visible damage”, the “damage compared to saline-saline rats” value ([1]; dorsal entorhinal cortex layer II) is reported as 9% and the “damage compared to saline-saline rats” value ([1]; dorsal entorhinal cortex layers III-IV) is reported as 15%. For the same molecule, the “cell loss compared to saline-saline rats” value ([1]; hilus of dentate gyrus) was 73%, the “cell loss compared to saline-saline rats” value ([1]; hippocampus CA1 pyramidal cell layer) was 70% and 75% and the “cell loss compared to saline-saline rats” value ([1]; hippocampus CA3a) was 54%. For the same molecule, the “cell loss compared to saline-saline rats” value ([1]; hippocampus CA3b) was 31%, the “cell loss compared to saline-saline rats” value ([1]; lateral thalamic nucleus) was 91% and the “cell loss compared to saline-saline rats” value ([1]; mediodorsal thalamic nucleus) was 56%. For the same molecule, the “cell loss compared to saline-saline rats” value ([1]; piriform cortex layer II) was 53%, the “cell loss compared to saline-saline rats” value ([1]; piriform cortex layers III-IV) was “total” and the “damage compared to saline-saline rats” value ([1]; ventral entorhinal cortex layer II) was “totally preserved”. For the same molecule, the “cell loss compared to saline-saline rats” value ([1]; ventral entorhinal cortex layers III-IV) was 44%, the “frequency of spontaneous seizures over the four weeks of recording” value [2] was “tendency to be higher” and the “EEG by 6-7 h of SE” value [3] was “spiking activity was still present in the cortex and the hippocampus”. The “mortality over the first 48 h after SE” value ([4]; group devoted to cell counting at 14 days (4/11)) was 36%, the “mortality over the first 48 h after SE” value ([4]; group devoted to latency to SRS and late cell counting (1/14)) was 7% and the “number of neuronal cell bodies” value ([5]; Amygdala Medial, dorsal anterior) was 40.0 ± 2.5. For the same molecule, the “number of neuronal cell bodies” value ([5]; Amygdala Medial, ventral posterior) was 21.8 ± 2.4, the “number of neuronal cell bodies” value ([5]; Cerebral cortex Entorhinal, layer II, dorsal) was 23.5 ± 0.7 and the “number of neuronal cell bodies” value ([5]; Cerebral cortex Entorhinal, layer II, ventral) was 21.7 ± 1.3. For the same molecule, the “number of neuronal cell bodies” value ([5]; Cerebral cortex Entorhinal, layer III/IV, dorsal) was 22.3 ± 0.5, the “number of neuronal cell bodies” value ([5]; Cerebral cortex Entorhinal, layer III/IV, ventral) was 7.7 ± 2.3 and the “number of neuronal cell bodies” value ([5]; Cerebral cortex Piriform, layer II, dorsal) was 12.6 ± 4.2. For the same molecule, the “number of neuronal cell bodies” value ([5]; Cerebral cortex Piriform, layer II, ventral) was 3.6 ± 0.7, the “number of neuronal cell bodies” value ([5]; Cerebral cortex Piriform, layer III) was 1.2 ± 1.2 and the neurons surviving ([5]; DZP, all parts of the entorhinal cortex (range), 14 days after SE) was 27-81%. For the same molecule, the “neuronal loss (drop out) compared to control rats” value ([5]; DZP, amygdala basolateral nucleus, 14 days after SE) was 73%, the “neuronal damage compared to control rats” value ([5]; DZP, amygdala central nucleus, 14 days after SE) was “no neuronal damage” and the “neuronal loss (drop out) compared to control rats” value ([5]; DZP, amygdala medial dorsal anterior nucleus, 14 days after SE) was 53%. The “neuronal loss compared to control rats” value ([5]; DZP, amygdala medial ventral posterior nucleus, 14 days after SE) was 38%, the “neuronal damage compared to control rats” value ([5]; DZP, dentate gyrus granule cell layer, 14 days after SE) was “did not show overt damage” and the “neuronal damage compared to control saline-treated rats” value ([5]; DZP, dorsal entorhinal cortex layer II, 14 days after SE) was 18%. For the same molecule, the “neuronal damage compared to control saline-treated rats” value ([5]; DZP, dorsal entorhinal cortex layers III-IV, 14 days after SE) was 24%, the “neuronal loss compared to control rats” value ([5]; DZP, hilus of dentate gyrus, 14 days after SE) was 65% and 66% and the “neuronal loss (drop out) compared to control rats” value ([5]; DZP, hippocampus CA1 pyramidal cell layer, 14 days after SE) was 85%. The “neuronal loss compared to control rats” value ([5]; DZP, hippocampus CA3 region, 14 days after SE) was 40%, the “neuronal loss compared to control saline-treated rats” value ([5]; DZP, piriform cortex dorsal layer II, 14 days after SE) was 66% and the “neuronal loss compared to control saline-treated rats” value ([5]; DZP, piriform cortex layer III, 14 days after SE) was 94%. For the same molecule, the “neuronal loss compared to control saline-treated rats” value ([5]; DZP, piriform cortex ventral layer II, 14 days after SE) was 89%, the “neuronal loss (drop out) compared to control rats” value ([5]; DZP, thalamus central medial nucleus, 14 days after SE) was 34% and the “neuronal loss (drop out) compared to control rats” value ([5]; DZP, thalamus dorsolateral medial dorsal nucleus, 14 days after SE) was 40%. The “neuronal loss (drop out) compared to control rats” value ([5]; DZP, thalamus mediodorsal central nucleus, 14 days after SE) was 18%, the “neuronal loss (drop out) compared to control rats” value ([5]; DZP, thalamus mediodorsal lateral nucleus, 14 days after SE) was 24% and the “neuronal loss compared to control rats” value ([5]; DZP, thalamus mediodorsal nucleus, 14 days after SE) was 49%. For the same molecule, the “neuronal loss compared to control rats” value ([5]; DZP, thalamus ventral lateral division of the dorsolateral nucleus, 14 days after SE) was 90%, the “neuronal damage compared to control saline-treated rats” value ([5]; DZP, ventral entorhinal cortex layer II, 14 days after SE) was 22% and 19% and the “neuronal damage compared to control saline-treated rats” value ([5]; DZP, ventral entorhinal cortex layers III/IV, 14 days after SE) was 74% and 73%. For the same molecule, the “number of neuronal cell bodies” value ([5]; Hippocampus CA1 area) was 10.9 ± 1.9, the “number of neuronal cell bodies” value ([5]; Hippocampus CA3 area) was 31.3 ± 2.9 and the “number of neuronal cell bodies” value ([5]; Hippocampus Hilus) was 33.5 ± 3.0. For the same molecule, the “number of neuronal cell bodies” value ([5]; Thalamus Central medial) was 74.2 ± 7.4, the “number of neuronal cell bodies” value ([5]; Thalamus Dorsolateral, medial, dorsal) was 61 ± 6.3 and the “number of neuronal cell bodies” value ([5]; Thalamus Dorsolateral, ventral lateral) was 9.7 ± 2.5. The “number of neuronal cell bodies” value ([5]; Thalamus Mediodorsal central) was 26.3 ± 1.8, the “number of neuronal cell bodies” value ([5]; Thalamus Mediodorsal lateral) was 19.6 ± 0.8 and the “number of neuronal cell bodies” value ([5]; Thalamus Mediodorsal medial) was 16.4 ± 1.9. For the same molecule, the “mortality during the first 48 h after SE” value [6] was 23%.

— patent US20070021501A1, “Methods of treating epileptogenesis” (priority 2005, published 2007)
